Assay results as given in publication PMC5824344 (ACS Chemical Biology, 2017).

Assays:
[1] = test system: GluI and GluII in human hepatoma Huh7.5 cells; experiment: Free oligosaccharide (FOS) assay in Huh7.5 cells; type: cell-based; conditions: naive Huh7.5 cells, 48 h, 50 µm
Description: 5 Cell and Virus Culture and Assays
5.1 Culture of Cell Lines
The human hepatoma cell line Huh7.5 (Apath, LLC) was cultured in Dulbecco’s modiﬁed Eagle medium (DMEM) with Glutamax (Gibco) supplemented with 100 µg mL−1 strepto-mycin (Sigma), 100 U mL−1 penicillin (Sigma), 100 µm MEM non-essential amino acids (Gibco) and 10% (volume/volume, v/v) heat-inactivated (56 ◦C, 30 min) fetal calf serum (FCS, Seralab). The human monocytic cell line HL60 (ATCC), human T lymphocyte cell line Jurkat (ATCC), and human B lymphocyte cell line Raji (ATCC) were each maintained in RPMI 1640 media with Glutamax (Gibco) supplemented with 100 µg mL−1 streptomycin, 100 U mL−1 penicillin and 10% (v/v) FCS. The monkey kidney cell line LLC-MK2 (a gift from Armed Forces Research Institute of Medical Sciences, Thailand) was cultured in M199 media (Gibco) supplemented with 2 mm l-glutamine, 100 µg mL−1 streptomycin, 100 U mL−1 penicillin and 20% (v/v) FCS. Subsequently, these are referred to as growth media for each cell line. Unless otherwise indicated, all cell incubations were carried out at 37 ◦C and 5% CO2. […]
Cell viability was measured using the CellTiter 96 R© AQueous One Solution Cell Prolifera-tion MTA (3-(4,5-dimethylthiazol-2-yl)-5-(3-carboxymethoxyphenyl)-2-(4-sulfophenyl)-2H - […]
After a further one to two hour incubation, the absorbance at 490 nm was measured on a Molecular Devices SpectraMax M5 microplate reader. […]
Absorbances were averaged across replicates, and corrected for background by subtracting the value for media-only wells. Each drug treatment was then evaluated as a percentage of untreated cells. […]
FOS analysis was carried out as described previously. […] Before purifying the FOS, each sample was analyzed for protein content using the modiﬁed Bradford assay. […] The labelled glycans were then analyzed by normal phase high performance liquid chromatography. Retention times and peak area were used to identify and quantify glycans, respectively, by comparison to standards of known identity and molar quantity. FOS quantities were normalized to protein levels.

[2] = Pharmacokinetics and biodistribution study in mice (IV and PO); type: in vivo, BALB/c mice
Description: Supplemental Figure 4: Mouse biodistribution of orally-administered 4. Mice were treated with a single dose of 4 by oral gavage (PO, 10 mg/kg). The mice were sacriﬁced at 30 min, 4 h, and 24 h after 4 administration, and the indicated tissues homogenized and analyzed for 4 by HPLC. While serum levels are much lower than […]
and kidney at 0.5 hours. At 4 and 24 h, as in the IV cohort, 4 remains at a higher concentration in the liver than in other tissues. Each data point represents the mean of 3 animals with error bars representing standard deviation (GraphPad Prism).
(also on this page, place not known: Serum Brain Liver Kidney Heart Spleen Lung 0 500 1000 1500 2000 Tissue h h (ng per g tissue) h 0.5 24 4)
(1 picture or pasted object on this page, not shown here)
The adherent monolayers were washed once with Hank’s buﬀered salt solution (Gibco), then inoculated with 100 µL of analyte and 100 µL of the supplemented MEM used to prepare the dilutions. The plates were rocked at 20 ◦C for 90 min, after which the inoculum was removed and nutrient-supplemented primary overlay (1 mL) was added to each well. The overlay was allowed to solidify at 20 ◦C, before returning the cells to the incubator. After 5 d, nutrient-supplemented, neutral red-containing secondary overlay (1 mL) was added to each well and allowed to solidify at 20 ◦C, then the cells were returned to the incubator.
After 1 d, plaques were observed and counted from the underside of the plate by eye.
5.10 Pharmacokinetics and Biodistribution Study
The study was carried out by Sai Life Science, Ltd. All procedures were in accordance with the guidelines provided by the Committee for the Purpose of Control and Supervisions of Experiments on Animals as published in The Gazette of India, December 15, 1998. Prior approval of the Institutional Animal Ethics Committee was obtained before initiation of the […]
18 healthy male BALB/c mice (8 – 12 weeks old) weighing between 20 and 35 g were procured from ACTREC, Mumbai, India. Illumination was controlled to give a cycle of 12 h light and 12 h dark. Temperature and humidity were recorded by an auto-controlled data logging system and maintained at 22± 3◦C and 55± 15% humidity, respectively. Animals were provided laboratory rodent diet (Vetcare India Pvt. Ltd.) and fresh reverse-osmosis, UV-treated water ad libitum. The mice were randomly divided into two groups. One group was treated with 4 intravenously (IV) at a dose of 2 mg/kg, while the other group was treated with an oral (per os, PO) dose of 10 mg/kg. The dosing volume was 5 mL/kg for IV treatment and 10 mL/kg for PO treatment. Blood samples were collected from three mice from each group under light isoﬂurane anaesthesia before dosing and at 0.25, 0.5, 1, 2, 4, 8 and 24 h after dosing. An additional blood sample was taken for the IV group at 0.08 h after dosing. After collection, potassium tetraethylenediamine was added to the sample as an anticoagulant. Plasma was immediately harvested by centrifugation and then stored at –70 ◦C until analysis. At 0.5, 4, and 24 h after dosing, 3 mice from each group

[3] = BALB/c mice, oral (PO, 10 mg/kg)
[4] = mice, single dose by oral gavage (PO, 10 mg/kg)

Row | Structure (SMILES) | glucosylated free oligosaccharides (FOS) observed after treatment [1] | change of amount present in the liver between the 4 and 24 h time points ([2]; BALB/c mice) | oral bioavailability ([2]; BALB/c mice) | maximum blood plasma concentration [2, 3] | time of maximum blood plasma concentration [2, 3] | tissue in which compound was detected in the highest amounts ([2]; BALB/c mice, oral and intravenous administration) | half-life ([2]; male, mouse, plasma, BALB/c mice (Figure 3B), read-out: plasma terminal half-life (converted)) | concentration in the liver relative to other tissues at 4 and 24 h [2, 4] | tissue levels at 0.5 hours [2, 4] | glucosylated free oligosaccharides (FOS) observed after treatment ([1]; listed as ToP-DNJ 4)
1 | CCCCN1CC(O)C(O)C(O)C1CO [Compound 2, N-butyl-D-1-deoxynojirimycin, reference compound] | inhibits both enzymes | – | – | – | – | – | – | – | – | –
2 | Cc1c(C)c2c(c(C)c1OCCCCCN1CC(O)C(O)C(O)C1CO)CCC(C)(CCCC(C)CCCC(C)CCCC(C)C)O2 (centres unmarked) [Compound 4, 5′-tocopheroxypentyl-DNJ] | no glucosylated FOS were observed | did not decrease | poor oral bioavailability | 46 nM | 8 h | highest amounts in the liver | 8.79 h | higher | high levels are achieved in the liver | no glucosylated FOS were detected
